Laboratory results reported in patent US20230085307A1, “PYRIDAZINONE COMPOUND AND HERBICIDE” (NISSAN CHEMICAL CORPORATION, priority 2019, published 2023).

Key:
redroot pigweed [1] = assay: Test Example 4: herbicidal effect by soil treatment (Table 19, symbol N); type: in vivo, redroot pigweed (Amaranthus retroflexus)
Summary of the method: (§1)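 Pre-emergence style soil spray: seeds under ~1.5 cm sterilized diluvial soil received a uniform coat of emulsion diluted to the predetermined herbicide amount. Greenhouse 25–30° C; readout at week three on previously defined criteria.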

blackgrass [2] = assay: Test Example 4: herbicidal effect by soil treatment (Table 19, symbol J); type: in vivo, blackgrass (Alopecurus myosuroides)
Summary of the method: as §1

lambsquarters [3] = assay: Test Example 4: herbicidal effect by soil treatment (Table 19, symbol O); type: in vivo, lambsquarters (Chenopodium album)
Summary of the method: as §1

rice flat sedge = assay: Test Example 3: herbicidal effect by foliage application, Wagner pot (Table 18, symbol E); type: in vivo, rice flat sedge (Cyperus iria)
Summary of the method: (§2)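 Plants were sown in alluvial soil held under 0.1–0.5 cm standing water and grown 14 days in a greenhouse at 25–30 °C. An emulsifiable formulation, water-diluted to the set dose, was then sprayed onto the foliage, and effects were scored three weeks later using previously defined criteria.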

velvetleaf [4] = assay: Test Example 4: herbicidal effect by soil treatment (Table 19, symbol M); type: in vivo, velvetleaf (Abutilon theophrasti)
Summary of the method: as §1

wild oat [5] = assay: Test Example 5: herbicidal effect by foliage application, plastic box (Table 20, symbol I); type: in vivo, wild oat (Avena fatua); conditions: foliage application, evaluated three weeks after application
Summary of the method: (§3)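 Plants were sown into sterilized diluvial soil under about 1.5 cm cover and kept in a greenhouse at 25° C. to 30° C. Fourteen days on, foliage received an even spray of the diluted emulsion. Herbicidal or crop effect was judged three weeks afterwards.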

green foxtail [6] = assay: Test Example 4: herbicidal effect by soil treatment (Table 19, symbol G); type: in vivo, green foxtail (Setaria viridis)
Summary of the method: as §1

redroot pigweed [7] = assay: Test Example 5: herbicidal effect by foliage application, plastic box (Table 20, symbol N); type: in vivo, redroot pigweed (Amaranthus retroflexus); conditions: foliage application, evaluated three weeks after application
Summary of the method: as §3

barnyard grass [8] = assay: Test Example 3: herbicidal effect by foliage application, Wagner pot (Table 18, symbol H); type: in vivo, barnyard grass (Echinochloa crus-galli)
Summary of the method: as §2

lambsquarters [9] = assay: Test Example 5: herbicidal effect by foliage application, plastic box (Table 20, symbol O); type: in vivo, lambsquarters (Chenopodium album); conditions: foliage application, evaluated three weeks after application
Summary of the method: as §3

wild oat [10] = assay: Test Example 4: herbicidal effect by soil treatment (Table 19, symbol I); type: in vivo, wild oat (Avena fatua)
Summary of the method: as §1

Italian ryegrass [11] = assay: Test Example 5: herbicidal effect by foliage application, plastic box (Table 20, symbol K); type: in vivo, Italian ryegrass (Lolium multiflorum); conditions: foliage application, evaluated three weeks after application
Summary of the method: as §3

barnyard grass [12] = assay: Test Example 4: herbicidal effect by soil treatment (Table 19, symbol H); type: in vivo, barnyard grass (Echinochloa crus-galli)
Summary of the method: as §1

barnyard grass [13] = assay: Test Example 5: herbicidal effect by foliage application, plastic box (Table 20, symbol H); type: in vivo, barnyard grass (Echinochloa crus-galli); conditions: foliage application, evaluated three weeks after application
Summary of the method: as §3

green foxtail [14] = assay: Test Example 5: herbicidal effect by foliage application, plastic box (Table 20, symbol G); type: in vivo, green foxtail (Setaria viridis); conditions: foliage application, evaluated three weeks after application
Summary of the method: as §3

velvetleaf [15] = assay: Test Example 5: herbicidal effect by foliage application, plastic box (Table 20, symbol M); type: in vivo, velvetleaf (Abutilon theophrasti); conditions: foliage application, evaluated three weeks after application
Summary of the method: as §3

blackgrass [16] = assay: Test Example 5: herbicidal effect by foliage application, plastic box (Table 20, symbol J); type: in vivo, blackgrass (Alopecurus myosuroides); conditions: foliage application, evaluated three weeks after application
Summary of the method: as §3

windgrass [17] = assay: Test Example 4: herbicidal effect by soil treatment (Table 19, symbol L); type: in vivo, windgrass (Apera spica-venti)
Summary of the method: as §1

chickweed = assay: Test Example 5: herbicidal effect by foliage application, plastic box (Table 20, symbol P); type: in vivo, common chickweed (Stellaria media); conditions: foliage application, evaluated three weeks after application
Summary of the method: as §3

false cleavers = assay: Test Example 4: herbicidal effect by soil treatment (Table 19, symbol Q); type: in vivo, false cleavers (Galium spurium)
Text: [Test Example 4] Herbicidal Effect Test by Soil Treatment
Sterilized diluvial soil was placed in a plastic box having a length of 21 cm, a width of 13 cm, and a depth of 7 cm. The seeds of each of southern crabgrass, green foxtail, barnyard grass, wild oat, blackgrass, Italian ryegrass, windgrass, velvetleaf, redroot pigweed, lambsquarters, chickweed, false cleavers, persian speedwell, corn, soybean, rice, wheat, beet, and rapeseed were sowed in a spot-like manner and covered with the soil having a thickness of about 1.5 cm. Subsequently, the emulsion agent of the compound of the present invention prepared according to Formulation Example 2 was diluted with water so as to achieve a predetermined herbicide amount, and the diluted emulsion agent was uniformly applied to the surface of the soil with a small-sized spray. The plastic box was placed in a greenhouse at 25° C. to 30° C. for growth of the plants. Three weeks after the herbicide application, the effect of the herbicide on each plant was evaluated according to the criteria of Test Example 1.

southern crabgrass [18] = assay: Test Example 5: herbicidal effect by foliage application, plastic box (Table 20, symbol F); type: in vivo, southern crabgrass (Digitaria ciliaris); conditions: foliage application, evaluated three weeks after application
Summary of the method: as §3

Chinese sprangletop = assay: Test Example 3: herbicidal effect by foliage application, Wagner pot (Table 18, symbol D); type: in vivo, chinese sprangletop (Leptochloa chinensis)
Summary of the method: as §2

southern crabgrass [19] = assay: Test Example 4: herbicidal effect by soil treatment (Table 19, symbol F); type: in vivo, southern crabgrass (Digitaria ciliaris)
Summary of the method: as §1

persian speedwell = assay: Test Example 5: herbicidal effect by foliage application, plastic box (Table 20, symbol R); type: in vivo, Persian speedwell (Veronica persica); conditions: foliage application, evaluated three weeks after application
Summary of the method: as §3

windgrass [20] = assay: Test Example 5: herbicidal effect by foliage application, plastic box (Table 20, symbol L); type: in vivo, windgrass (Apera spica-venti); conditions: foliage application, evaluated three weeks after application
Summary of the method: as §3

Italian ryegrass [21] = assay: Test Example 4: herbicidal effect by soil treatment (Table 19, symbol K); type: in vivo, Italian ryegrass (Lolium multiflorum)
Summary of the method: as §1

[22] = amount of applied herbicide 320 g/ha
[23] = amount of applied herbicide 310 g/ha

COc1ccccc1-c1sc2ccc(C(F)(F)F)cc2c1-c1c(O)c(C)nn(C)c1=O [2-162]
N: redroot pigweed, herbicidal effect rating (redroot pigweed [1]; [22]): 2 (Herbicidal rate of 20% or more and less than 40%) | J: blackgrass, herbicidal effect rating (blackgrass [2]; [22]): 0 (Herbicidal rate of 5% or less (almost no effect)) | O: lambsquarters, herbicidal effect rating (lambsquarters [3]; [22]): 1 (Herbicidal rate of 5% or more and less than 20%) | herbicidal effect on E: rice flat sedge (rice flat sedge; [22]): 3 (Herbicidal rate of 40% or more and less than 70%) | M: velvetleaf, herbicidal effect rating (velvetleaf [4]; [22]): 0 (Herbicidal rate of 5% or less (almost no effect)) | herbicidal effect on I: wild oat (criteria 0-5) (wild oat [5]; 320 g/ha): 0 (Herbicidal rate of 5% or less (almost no effect)) | G: green foxtail, herbicidal effect rating (green foxtail [6]; [22]): 3 (Herbicidal rate of 40% or more and less than 70%) | herbicidal effect on N: redroot pigweed (criteria 0-5) (redroot pigweed [7]; 320 g/ha): 3 (Herbicidal rate of 40% or more and less than 70%) | herbicidal effect on H: barnyard grass (barnyard grass [8]; [22]): 3 (Herbicidal rate of 40% or more and less than 70%) | herbicidal effect on O: lambsquarters (criteria 0-5) (lambsquarters [9]; 320 g/ha): 0 (Herbicidal rate of 5% or less (almost no effect)) | I: wild oat, herbicidal effect rating (wild oat [10]; [22]): 0 (Herbicidal rate of 5% or less (almost no effect)) | herbicidal effect on K: Italian ryegrass (criteria 0-5) (Italian ryegrass [11]; 320 g/ha): 0 (Herbicidal rate of 5% or less (almost no effect)) | H: barnyard grass, herbicidal effect rating (barnyard grass [12]; [22]): 0 (Herbicidal rate of 5% or less (almost no effect)) | herbicidal effect on H: barnyard grass (criteria 0-5) (barnyard grass [13]; 320 g/ha): 0 (Herbicidal rate of 5% or less (almost no effect)) | herbicidal effect on G: green foxtail (criteria 0-5) (green foxtail [14]; 320 g/ha): 0 (Herbicidal rate of 5% or less (almost no effect)) | herbicidal effect on M: velvetleaf (criteria 0-5) (velvetleaf [15]; 320 g/ha): 2 (Herbicidal rate of 20% or more and less than 40%) | herbicidal effect on J: blackgrass (criteria 0-5) (blackgrass [16]; 320 g/ha): 0 (Herbicidal rate of 5% or less (almost no effect)) | L: windgrass, herbicidal effect rating (windgrass [17]; [22]): 0 (Herbicidal rate of 5% or less (almost no effect)) | herbicidal effect on P: chickweed (criteria 0-5) (chickweed; 320 g/ha): 5 (Herbicidal rate of 90% or more (almost completely withered)) | Q: false cleavers, herbicidal effect rating (false cleavers; [22]): 0 (Herbicidal rate of 5% or less (almost no effect)) | herbicidal effect on F: southern crabgrass (criteria 0-5) (southern crabgrass [18]; 320 g/ha): 0 (Herbicidal rate of 5% or less (almost no effect)) | herbicidal effect on D: Chinese sprangletop (Chinese sprangletop; [22]): 0 (Herbicidal rate of 5% or less (almost no effect)) | F: southern crabgrass, herbicidal effect rating (southern crabgrass [19]; [22]): 0 (Herbicidal rate of 5% or less (almost no effect)) | herbicidal effect on R: persian speedwell (criteria 0-5) (persian speedwell; 320 g/ha): 2 (Herbicidal rate of 20% or more and less than 40%) | herbicidal effect on L: windgrass (criteria 0-5) (windgrass [20]; 320 g/ha): 0 (Herbicidal rate of 5% or less (almost no effect)) | K: Italian ryegrass, herbicidal effect rating (Italian ryegrass [21]; [22]): 0 (Herbicidal rate of 5% or less (almost no effect))

Cc1nn(C)c(=O)c(-c2c(-c3ccc(OC(F)F)cc3)sc3ccc(F)cc23)c1OC(=S)Oc1ccccc1 [2-297]
herbicidal effect on N: redroot pigweed (redroot pigweed [1]; [23]): 5 (Herbicidal rate of 90% or more (almost completely withered)) | herbicidal effect on J: blackgrass (blackgrass [2]; [23]): 3 (Herbicidal rate of 40% or more and less than 70%) | herbicidal effect on O: lambsquarters (lambsquarters [3]; [23]): 5 (Herbicidal rate of 90% or more (almost completely withered)) | herbicidal effect on E: rice flat sedge (rice flat sedge; [23]): 5 (Herbicidal rate of 90% or more (almost completely withered)) | herbicidal effect on M: velvetleaf (velvetleaf [4]; [23]): 5 (Herbicidal rate of 90% or more (almost completely withered)) | I: wild oat, herbicidal effect (criteria 0-5) (wild oat [5]; AAH 310 g/ha): 2 (Herbicidal rate of 20% or more and less than 40%) | herbicidal effect on G: green foxtail (green foxtail [6]; [23]): 4 (Herbicidal rate of 70% or more and less than 90%) | N: redroot pigweed, herbicidal effect (criteria 0-5) (redroot pigweed [7]; AAH 310 g/ha): 5 (Herbicidal rate of 90% or more (almost completely withered)) | herbicidal effect on H: barnyard grass (barnyard grass [8]; [23]): 5 (Herbicidal rate of 90% or more (almost completely withered)) | O: lambsquarters, herbicidal effect (criteria 0-5) (lambsquarters [9]; AAH 310 g/ha): 5 (Herbicidal rate of 90% or more (almost completely withered)) | herbicidal effect on I: wild oat (wild oat [10]; [23]): 0 (Herbicidal rate of 5% or less (almost no effect)) | K: Italian ryegrass, herbicidal effect (criteria 0-5) (Italian ryegrass [11]; AAH 310 g/ha): 5 (Herbicidal rate of 90% or more (almost completely withered)) | herbicidal effect on H: barnyard grass (barnyard grass [12]; [23]): 4 (Herbicidal rate of 70% or more and less than 90%) | H: barnyard grass, herbicidal effect (criteria 0-5) (barnyard grass [13]; AAH 310 g/ha): 5 (Herbicidal rate of 90% or more (almost completely withered)) | G: green foxtail, herbicidal effect (criteria 0-5) (green foxtail [14]; AAH 310 g/ha): 5 (Herbicidal rate of 90% or more (almost completely withered)) | M: velvetleaf, herbicidal effect (criteria 0-5) (velvetleaf [15]; AAH 310 g/ha): 5 (Herbicidal rate of 90% or more (almost completely withered)) | J: blackgrass, herbicidal effect (criteria 0-5) (blackgrass [16]; AAH 310 g/ha): 3 (Herbicidal rate of 40% or more and less than 70%) | herbicidal effect on L: windgrass (windgrass [17]; [23]): 0 (Herbicidal rate of 5% or less (almost no effect)) | P: chickweed, herbicidal effect (criteria 0-5) (chickweed; AAH 310 g/ha): 5 (Herbicidal rate of 90% or more (almost completely withered)) | herbicidal effect on Q: false cleavers (false cleavers; [23]): 0 (Herbicidal rate of 5% or less (almost no effect)) | F: southern crabgrass, herbicidal effect (criteria 0-5) (southern crabgrass [18]; AAH 310 g/ha): 1 (Herbicidal rate of 5% or more and less than 20%) | herbicidal effect on D: Chinese sprangletop (Chinese sprangletop; [23]): 0 (Herbicidal rate of 5% or less (almost no effect)) | herbicidal effect on F: southern crabgrass (southern crabgrass [19]; [23]): 3 (Herbicidal rate of 40% or more and less than 70%) | R: persian speedwell, herbicidal effect (criteria 0-5) (persian speedwell; AAH 310 g/ha): 5 (Herbicidal rate of 90% or more (almost completely withered)) | L: windgrass, herbicidal effect (criteria 0-5) (windgrass [20]; AAH 310 g/ha): 0 (Herbicidal rate of 5% or less (almost no effect)) | herbicidal effect on K: Italian ryegrass (Italian ryegrass [21]; [23]): 5 (Herbicidal rate of 90% or more (almost completely withered))
